Measurements as given in US9783511B2, “Carbamate benzoxazine propionic acids and acid derivatives for modulation of RORgamma activity and the treatment of disease” (Merck Sharp & Dohme Corp., priority 2013, dated 2017).

Each compound was assayed against human RORgammaT-Ligand Binding Domain (LBD) (Homo sapiens (Human), UniProt P51449) (assay: RORγ-Ligand Binding Domain TR-FRET Assay (co-activator peptide SRC1_2 recruitment)). Details: HIS-tagged RORγ-LBD 3 nM, biotinylated SRC1 LXXLL peptide 100 nM, incubated overnight at 4° C., 665 nm/615 nm ratio.
human RORgammaT-Ligand Binding Domain (LBD), sequence (P51449 269-508): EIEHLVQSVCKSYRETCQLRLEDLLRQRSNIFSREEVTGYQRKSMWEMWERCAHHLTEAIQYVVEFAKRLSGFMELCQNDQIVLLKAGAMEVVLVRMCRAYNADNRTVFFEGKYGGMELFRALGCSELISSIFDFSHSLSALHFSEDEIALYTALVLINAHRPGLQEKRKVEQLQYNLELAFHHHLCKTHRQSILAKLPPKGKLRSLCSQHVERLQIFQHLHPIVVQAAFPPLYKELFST
Format: biochemical
Source text: Activation of RORgammaT activity can be measured using, e.g., a biochemical TR-FRET assay. In such an assay, interaction of cofactor-derived peptides with human RORgammaT-Ligand Binding Domain (LBD) can be measured.
To identify novel antagonists of RORgammaT, an assay was developed which employs the interaction of RORgammaT with its co-activator peptide SRC1_2. […] The RORγ-Ligand Binding Domain TR-FRET Assay was run according to the following protocol.
HIS-tagged RORγ-LBD protein was recombinantly expressed in Escherichia coli. The RORγ-LBD protein was purified by Ni^2+-affinity resin. Purified protein was then diluted in assay buffer (50 mM Tris pH 7.0, 50 mM KCl, 1 mM EDTA, 0.1 mM DTT, 100 μg/mL bovine serum albumin, delipidated) to obtain a RORγ-LBD final concentration of 3 nM.
Compounds to be tested were injected to the 384-well assay plate using Acoustic Droplet Ejection technology by Echo 550 liquid handler (Labcyte, CA).

Compound | IC50 [nM]
CC(C)(OC(=O)Nc1ccc2c(c1)N(S(=O)(=O)c1cccc(C(F)(F)F)c1)C[C@H](CC(O)C(=O)O)O2)C(F)(F)F (mixture of isomers) [Example 15, (R and S)-2-hydroxy-3-((S)-6-((((1,1,1-trifluoro-2-methylpropan-2-yl)oxy)carbonyl)amino)-4-((3-(trifluoromethyl)phenyl)sulfonyl)-3,4-dihydro-2H-benzo[b][1,4]oxazin-2-yl)propanoic acid] | 18.1
COc1cc(S(=O)(=O)N2C[C@H](CC(O)C(=O)O)Oc3ccc(NC(=O)OC(C)(C)C(F)(F)F)cc32)ccc1F (mixture of isomers) [Example 18F, (R and S)-3-((S)-4-((4-fluoro-3-methoxyphenyl)sulfonyl)-6-((((1,1,1-trifluoro-2-methylpropan-2-yl)oxy)carbonyl)amino)-3,4-dihydro-2H-benzo[b][1,4]oxazin-2-yl)-2-hydroxypropanoic acid] | 9.39
Cc1nn(C(F)F)cc1S(=O)(=O)N1C[C@H](C[C@@H](C)C(=O)O)Oc2ccc(NC(=O)OC(C)(C)C(F)(F)F)cc21 (single isomer, unassigned) [Example 6BG, (R or S)-3-((S)-4-((1-(difluoromethyl)-3-methyl-1H-pyrazol-4-yl)sulfonyl)-6-((((1,1,1-trifluoro-2-methylpropan-2-yl)oxy)carbonyl)amino)-3,4-dihydro-2H-benzo[b][1,4]oxazin-2-yl)-2-methylpropanoic acid] | 13.3
CCOc1sc(C2CC2)nc1S(=O)(=O)N1C[C@H](C[C@@H](C)C(=O)O)Oc2ccc(NC(=O)OC(C)(C)C(F)(F)F)cc21 (single isomer, unassigned) [Example 6BP, (R or S)-3-((S)-4-((2-cyclopropyl-5-ethoxythiazol-4-yl)sulfonyl)-6-((((1,1,1-trifluoro-2-methylpropan-2-yl)oxy)carbonyl)amino)-3,4-dihydro-2H-benzo[b][1,4]oxazin-2-yl)-2-methylpropanoic acid] | 26.6
CCc1nc(S(=O)(=O)N2C[C@H](C[C@@H](C)C(=O)O)Oc3ccc(NC(=O)OC(C)(C)C(F)(F)F)cc32)c(OCC(F)(F)F)s1 (single isomer, unassigned) [Example 6BR, (R or S)-3-((S)-4-((2-ethyl-5-(2,2,2-trifluoroethoxy)thiazol-4-yl)sulfonyl)-6-((((1,1,1-trifluoro-2-methylpropan-2-yl)oxy)carbonyl)amino)-3,4-dihydro-2H-benzo[b][1,4]oxazin-2-yl)-2-methylpropanoic acid] | 12.3
CCOc1sc(CC)nc1S(=O)(=O)N1C[C@H](C[C@@H](C)C(=O)O)Oc2ccc(NC(=O)OC(C)(C)C(F)(F)F)cc21 (single isomer, unassigned) [Example 6Bo, (R or S)-3-((S)-4-((5-ethoxy-2-ethylthiazol-4-yl)sulfonyl)-6-((((1,1,1-trifluoro-2-methylpropan-2-yl)oxy)carbonyl)amino)-3,4-dihydro-2H-benzo[b][1,4]oxazin-2-yl)-2-methylpropanoic acid] | 11.9
Cc1cccc(S(=O)(=O)N2C[C@H](C[C@@H](C)C(=O)O)Oc3ccc(NC(=O)OC(C)(C)C(F)(F)F)cc32)c1 (single isomer, unassigned) [Example 6CK, (S or R)-2-methyl-3-((S)-4-(m-tolylsulfonyl)-6-((((1,1,1-trifluoro-2-methylpropan-2-yl)oxy)carbonyl)amino)-3,4-dihydro-2H-benzo[b][1,4]oxazin-2-yl)propanoic acid] | 14.5
C[C@H](C[C@H]1CN(S(=O)(=O)c2cccc(OC(F)F)c2)c2cc(NC(=O)OC(C)(C)C(F)(F)F)ccc2O1)C(=O)O (single isomer, unassigned) [Example 6CM, (S or R)-3-((S)-4-((3-(difluoromethoxy)phenyl)sulfonyl)-6-((((1,1,1-trifluoro-2-methylpropan-2-yl)oxy)carbonyl)amino)-3,4-dihydro-2H-benzo[b][1,4]oxazin-2-yl)-2-methylpropanoic acid] | 5.25
Cc1cccc(S(=O)(=O)N2C[C@H](C[C@H](C)C(=O)O)Oc3ccc(NC(=O)OC(C)(C)C(F)(F)F)cc32)c1 (single isomer, unassigned) [Example 6CP, (S or R)-2-methyl-3-((S)-4-(m-tolylsulfonyl)-6-((((1,1,1-trifluoro-2-methylpropan-2-yl)oxy)carbonyl)amino)-3,4-dihydro-2H-benzo[b][1,4]oxazin-2-yl)propanoic acid] | 11.6
C[C@@H](C[C@H]1CN(S(=O)(=O)c2cccc(C3CC3)c2)c2cc(NC(=O)OC(C)(C)C(F)(F)F)ccc2O1)C(=O)O (single isomer, unassigned) [Example 6CU, (S or R)-3-((S)-4-((3-cyclopropylphenyl)sulfonyl)-6-((((1,1,1-trifluoro-2-methylpropan-2-yl)oxy)carbonyl)amino)-3,4-dihydro-2H-benzo[b][1,4]oxazin-2-yl)-2-methylpropanoic acid] | 17.8
C[C@H](C[C@H]1CN(S(=O)(=O)c2cccc(C3CC3)c2)c2cc(NC(=O)OC(C)(C)C(F)(F)F)ccc2O1)C(=O)O (single isomer, unassigned) [Example 6CW, (R or S)-3-((S)-4-((3-cyclopropylphenyl)sulfonyl)-6-((((1,1,1-trifluoro-2-methylpropan-2-yl)oxy)carbonyl)amino)-3,4-dihydro-2H-benzo[b][1,4]oxazin-2-yl)-2-methylpropanoic acid] | 10.2
C[C@H](C[C@H]1CN(S(=O)(=O)c2ccnc(C(F)(F)F)c2)c2cc(NC(=O)OC(C)(C)C(F)(F)F)ccc2O1)C(=O)O (single isomer, unassigned) [Example 6CZ, (R or S)-2-methyl-3-((S)-6-((((1,1,1-trifluoro-2-methylpropan-2-yl)oxy)carbonyl)amino)-4-((2-(trifluoromethyl)pyridin-4-yl)sulfonyl)-3,4-dihydro-2H-benzo[b][1,4]oxazin-2-yl)propanoic acid] | 15.3
C[C@@H](C[C@H]1CN(S(=O)(=O)c2cccc(OC(F)F)c2)c2cc(NC(=O)OC(C)(C)C(F)(F)F)ccc2O1)C(=O)O (single isomer, unassigned) [Example 6Co, (S or R)-3-((S)-4-((3-(difluoromethoxy)phenyl)sulfonyl)-6-((((1,1,1-trifluoro-2-methylpropan-2-yl)oxy)carbonyl)amino)-3,4-dihydro-2H-benzo[b][1,4]oxazin-2-yl)-2-methylpropanoic acid] | 8.38
C[C@@H](C[C@H]1CN(S(=O)(=O)c2ccnc(C(F)(F)F)c2)c2cc(NC(=O)OC(C)(C)C(F)(F)F)ccc2O1)C(=O)O (single isomer, unassigned) [Example 6DA, (R or S)-2-methyl-3-((S)-6-((((1,1,1-trifluoro-2-methylpropan-2-yl)oxy)carbonyl)amino)-4-((2-(trifluoromethyl)pyridin-4-yl)sulfonyl)-3,4-dihydro-2H-benzo[b][1,4]oxazin-2-yl)propanoic acid] | 14.9
C[C@H](C[C@H]1CN(S(=O)(=O)c2ccnc(C3CC3)c2)c2cc(NC(=O)OC(C)(C)C(F)(F)F)ccc2O1)C(=O)O (single isomer, unassigned) [Example 6DB, (R or S)-3-((S)-4-((2-cyclopropylpyridin-4-yl)sulfonyl)-6-((((1,1,1-trifluoro-2-methylpropan-2-yl)oxy)carbonyl)amino)-3,4-dihydro-2H-benzo[b][1,4]oxazin-2-yl)-2-methylpropanoic acid] | 11.5
